Assay results reported in publication PMC10272112 (Nature Communications, 2023).
Where two headings read alike, the source gives them in different places.

Key:
MIER1 = experiment: Chemoproteomic competition pulldown assay (HDAC interactor); format: binding; settings: iQ, SW620 lysate
Experimental: (§1) To identify proteins directly bound by lipoic acid, we employed a chemoproteomic competition assay. Briefly, (R/S)-LA was immobilized on sepharose beads via an amidation reaction to form an affinity matrix (abbreviated as iL; Fig. 1a). This affinity matrix can be incubated with cell lysate to pull down potential LA or LM target proteins and identify these targets via bottom-up proteomics. In a competition assay, free LA or LM were incubated with lysate at different concentrations before pulling down and quantifying target proteins. […] (Fig. 1b, see “Methods” for details). […] The lysate buffer used in this assay contains 1 mM DTT to mimic the intracellular reductive milieu and to reduce lipoic acid and LM. […] Additional competition assays performed in lung adenocarcinoma cell A549 lysate also identified HDAC1, HDAC2, and HDAC6 as targets (Supplementary Fig. 1b). Amongst the three cell lines tested, HDACs were the only confidently identified targets across the 1500–3000 proteins quantified in these assays. […] We validated the results by analogous pulldown competition assays using two other affinity matrices prepared via the immobilization of either the HDAC inhibitor Quisinostat (iQ) and an analog of the class IIa HDAC inhibitor Bürli’s 31[14] (iC)[12]. We have previously shown that these affinity matrices specifically bind to the active sites of HDACs and have used them for HDACi selectivity profiling. Indeed, binding of (R/S)-LA and (R/S)-LM to HDAC1, HDAC2, HDAC3, HDAC6, and, to a lesser extent, HDAC8 was confirmed in these assays (Supplementary Fig. 1c, d). No binding to class IIa HDACs or the recently discovered common HDAC inhibitor off-target MBLAC2 was observed (Supplementary Fig. 1e)[12]. […] This observation might reflect electrostatic repulsion between the HDAC10 active site gate-keeper glutamic acid residues[15],[16] and the terminal carboxylic acid of LA.
(§2) To assess the degree of protein depletion from lysates by the affinity matrix, a second pulldown (PDPD) with fresh beads was performed using the unbound protein fraction from the vehicle control flow through. The beads were washed (1 × 1 mL of lysis buffer without inhibitors and only 0.4% Igepal, 2 × 2 mL of lysis buffer without inhibitors and only 0.2% Igepal), and captured proteins were denatured with 8 M urea buffer, alkylated with 55 mM chloroacetamide and digested with Trypsin according to standard procedures. The resulting peptides were desalted on a C18 filter plate (Sep-Pak® tC18 µElution Plate, Waters), vacuum dried, and stored at −20 °C until LC–MSMS measurement.
(§3) For the competition assays, relative binding was calculated based on the protein intensity ratio to the DMSO control for every single inhibitor concentration. EC50 values were derived from a four-parameter log-logistic regression with variable slope (constrain: bottom > 0). The obtained EC50 values were multiplied with a protein-dependent correction factor (cf), resulting in the apparent Kd value (Kd^app). The correction factor is determined by calculating the ratio of the protein intensity of two consecutive pulldowns of the vehicle control sample[13]. Targets of the inhibitors were annotated manually according to published procedures[12],[46],[47]. […] Additionally, the number of unique peptides and MSMS counts per condition were taken into account. Positive target binding across several independent experiments performed with different cell lysates further substantiated our confidence for a true positive drug-target binding event.

TBL1XR1 (Homo sapiens) = experiment: Chemoproteomic competition pulldown assay (co-competed NCoR partner); format: binding; settings: iQ, SW620 lysate
Experimental: as §1, §2, §3

α-Tubulin AcK40 = experiment: α-tubulin acetylation detection by western blot, CBP-HA transfected HEK293T; format: cell-based; settings: for concentration showing substantial increase of α-Tubulin AcK40 acetylation: 7 h drug incubation; for α-Tubulin AcK40 acetylation level relative to control: HEK293T
Experimental: 0.2 × 10^6 HEK293T (ATCC: CRL-3216) cells were transfected with pcDNA 3.1-HA CBP plasmids (1 μg/well for the 6-well plate) by FuGENE. After 2 days, cells were treated with ACY-738, lipoic acid, and lipoamide for 7 h, then were washed by ice-cold PBS and lysed in Triton lysis buffer (50 mM Tris, pH 8.0, 150 mM NaCl, 1 mM EDTA, 0.1% TritonX-100 and complete EDTA-free protease inhibitors (Roche)) for analysis. To detect protein acetylation, 0.2 μM Trichostatin A and 5 mM nicotinamide were added to PBS for washing, and 10 μM trichostatin A, 10 mM nicotinamide, and 50 mM sodium butyrate were added to Triton lysis buffer.

[1] = target: HDACs (HDAC1, HDAC2, HDAC6); experiment: Chemoproteomic competition pulldown assay (HDAC panel); format: binding
Experimental: as §1
To assess the degree of protein depletion from lysates by the affinity matrix, a second pulldown (PDPD) with fresh beads was performed using the unbound protein fraction from the vehicle control flow through. The beads were washed (1 × 1 mL of lysis buffer without inhibitors and only 0.4% Igepal, 2 × 2 mL of lysis buffer without inhibitors and only 0.2% Igepal), and captured proteins were denatured with 8 M urea buffer, alkylated with 55 mM chloroacetamide and digested with Trypsin according to standard procedures. […]
For the competition assays, relative binding was calculated based on the protein intensity ratio to the DMSO control for every single inhibitor concentration. […] The correction factor is determined by calculating the ratio of the protein intensity of two consecutive pulldowns of the vehicle control sample[13]. […]

[2] = iL, SW620 lysate, 1 mM DTT, range over HDAC1, HDAC2, HDAC6, read-out: affinities (Kd app)

Chain of TBL1XR1 (Homo sapiens) (O15379 whole entry): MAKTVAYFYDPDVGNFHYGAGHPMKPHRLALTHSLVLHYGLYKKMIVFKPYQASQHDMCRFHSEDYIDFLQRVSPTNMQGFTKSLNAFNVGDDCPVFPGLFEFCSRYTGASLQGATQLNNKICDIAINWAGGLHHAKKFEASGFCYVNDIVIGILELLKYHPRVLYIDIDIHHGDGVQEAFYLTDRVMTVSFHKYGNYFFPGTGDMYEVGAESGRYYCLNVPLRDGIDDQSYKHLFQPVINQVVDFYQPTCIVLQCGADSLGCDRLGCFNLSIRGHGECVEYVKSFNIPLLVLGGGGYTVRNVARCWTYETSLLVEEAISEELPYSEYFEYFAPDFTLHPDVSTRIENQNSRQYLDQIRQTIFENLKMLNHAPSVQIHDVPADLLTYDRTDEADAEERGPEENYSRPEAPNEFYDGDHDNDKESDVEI
Chain of TBL1XR1 (Homo sapiens) (Q9BZK7 2-514, further chain): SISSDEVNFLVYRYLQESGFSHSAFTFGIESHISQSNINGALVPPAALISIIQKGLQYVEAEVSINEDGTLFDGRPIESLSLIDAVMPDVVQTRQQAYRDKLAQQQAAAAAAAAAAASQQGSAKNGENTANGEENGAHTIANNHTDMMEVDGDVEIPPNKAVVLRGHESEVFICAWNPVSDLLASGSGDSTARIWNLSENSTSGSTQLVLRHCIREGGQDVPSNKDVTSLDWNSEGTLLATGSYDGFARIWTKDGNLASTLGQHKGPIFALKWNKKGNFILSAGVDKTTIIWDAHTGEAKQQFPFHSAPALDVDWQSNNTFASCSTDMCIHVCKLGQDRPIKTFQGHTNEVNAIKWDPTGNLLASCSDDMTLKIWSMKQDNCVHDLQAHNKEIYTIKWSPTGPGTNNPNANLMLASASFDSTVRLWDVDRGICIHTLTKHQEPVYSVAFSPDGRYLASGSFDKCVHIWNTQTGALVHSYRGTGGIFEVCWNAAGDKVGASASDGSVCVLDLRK

Compound | relative binding vs DMSO (MIER1; log10 M -3.52288) | relative binding vs DMSO (MIER1; log10 M -4) | relative binding vs DMSO (MIER1; log10 M -4.52288) | relative binding vs DMSO (MIER1; log10 M -5) | relative binding vs DMSO (MIER1; log10 M -5.52288) | relative binding vs DMSO (MIER1; log10 M -6) | relative binding vs DMSO (MIER1; log10 M -6.52288) | relative binding vs DMSO (MIER1; log10 M -7) | relative binding vs DMSO (TBL1XR1 (Homo sapiens); log10 M -3.52288) | relative binding vs DMSO (TBL1XR1 (Homo sapiens); log10 M -4) | relative binding vs DMSO (TBL1XR1 (Homo sapiens); log10 M -4.52288) | relative binding vs DMSO (TBL1XR1 (Homo sapiens); log10 M -5) | relative binding vs DMSO (TBL1XR1 (Homo sapiens); log10 M -5.52288) | relative binding vs DMSO (TBL1XR1 (Homo sapiens); log10 M -6) | relative binding vs DMSO (TBL1XR1 (Homo sapiens); log10 M -6.52288) | relative binding vs DMSO (TBL1XR1 (Homo sapiens); log10 M -7) | concentration showing substantial increase of α-Tubulin AcK40 acetylation (α-Tubulin AcK40) [µM] | α-Tubulin AcK40 acetylation level relative to control (α-Tubulin AcK40; 1 mM) [fold] | α-Tubulin AcK40 acetylation level relative to control (α-Tubulin AcK40; .5 (mM)) [fold] | Kd [1, 2] [µM] | further results
O=C(O)CCCCC1CCSS1 (racemic) [(R/S)-LA, (R/S)-lipoic acid] | 0.1271 | 0.313 | 0.5121 | 0.4151 | 0.7821 | 0.8468 | 1.155 | 0.8632 | 0.2899 | 0.4212 | 0.5577 | 0.7209 | 0.9534 | 0.8832 | 1.088 | 1.002 | 50 | 3.4 | 2 | 3 to 33 | EC50 ([1]; peer review response, read-out: EC50 in chemoproteomic competition assays): 5 to 30 µM; Kd ([1]; peer review response, read-out: potency of target binding (Kd)): 5 to 30 µM
NC(=O)CCCCC1CCSS1 (racemic) [(R/S)-LM, (R/S)-lipoamide] | 0.1808 | 0 | 0.3328 | 0.7626 | 0.9557 | 1.104 | 0.974 | 1.319 | 0.1308 | 0.176 | 0.3741 | 0.8567 | 0.9248 | 0.9851 | 0.8544 | 0.9921 | 50 | 4.0 | 2.5 | 3 to 33 | α-Tubulin AcK40 acetylation level relative to control (α-Tubulin AcK40; 1 mM, listed as LM): 4 fold
